From PubChem BioAssay AID1996
In brackets after ≈: the same amount, converted by molar mass.

Settings: buffer; pH 7.4; 200.0 µM

solubility kinetic | SMILES
2.8 µg/mL (≈ 7.97 µM) | O=C(Nc1cc(Cl)ccc1Cl)C1Cc2ccccc2O/C1=N\O (stereo unspecified)
10.6 µg/mL (≈ 35.5 µM) | COc1ccc(NC(=O)CNC(=O)Cc2ccccc2)cc1
> 41.7 µg/mL | COc1ccc(S(=O)(=O)Nc2ccccn2)cc1C
> 51.5 µg/mL | COc1cc(CC(=O)NCCCc2ccccc2)cc(OC)c1OC
1.7 µg/mL (≈ 5.53 µM) | Cc1ccc2c(CN(C)Cc3ccccc3)cc(=O)oc2c1C
42.7 µg/mL (≈ 145 µM) | O=C(COC(=O)c1cccnc1Cl)c1ccc(F)cc1
> 43.9 µg/mL | O=C(CSc1ccc(Cl)cc1)NCc1ccncc1
> 41.1 µg/mL | O=C(c1cc(-c2ccccc2O)on1)N1CCOCC1
> 51.1 µg/mL | O=C(NCCCN1CCOCC1)C1Cc2c(ccc3ccccc23)O1 (stereo unspecified)
> 55.6 µg/mL | Cc1ccc(CNC(=O)COC(=O)CN2C(=O)C3CC=CCC3C2=O)cc1 (stereo unspecified)
> 37.8 µg/mL | CCOC(=O)c1ccc(NC(C)=O)c([N+](=O)[O-])c1
> 47.5 µg/mL | Cc1nc(Cc2ccc(OC(C)C)cc2)[nH]c(=O)c1CC(=O)O
1.7 µg/mL (≈ 6.29 µM) | CCNC(=S)Nc1ccc2c(c1)oc1ccccc12
6.2 µg/mL (≈ 16.6 µM) | O=C(NCCc1ccccc1)C1CCN(Cc2cccc3ccccc23)CC1
3.2 µg/mL (≈ 11.3 µM) | COc1ccc2c(c1OC)C(=O)N(c1ccc(C)cc1)C2
1.4 µg/mL (≈ 4.39 µM) | O=S(=O)(Nc1ccccn1)c1ccc(Cl)c2ccccc12
16.9 µg/mL (≈ 57.4 µM) | CC(=O)N1c2ccccc2C(=O)C1N(C)c1ccc(C)cc1 (stereo unspecified)
> 47.5 µg/mL | Cc1cccc(C(C)C)c1NC(=O)CSc1cccc[n+]1[O-]
1.3 µg/mL (≈ 4.01 µM) | Cc1c(C)c2ccc(OCC(=O)Nc3cccnc3)cc2oc1=O
40.1 µg/mL (≈ 138 µM) | Cc1cc(C(=O)Nc2cccc(C)c2C)c2ccccc2n1

solubility kinetic | SMILES
1.6 µg/mL (≈ 4.87 µM) | CCOC(=O)c1cc(C(=O)NC(C)c2ccccc2)c(=O)[nH]c1C (stereo unspecified)
> 56.9 µg/mL | COc1cc(CC(=O)OCC(=O)NCc2cccs2)cc(OC)c1OC
32.9 µg/mL (≈ 112 µM) | COc1cccc(CNc2ncc(-c3ccccc3)n2C)c1
26.3 µg/mL (≈ 100 µM) | O=C(NCc1ccccc1)c1ccc2ccccc2n1
< 0.3 µg/mL | CCCOC(=O)C1=C(C)NC(=O)NC1c1cccc2ccccc12 (stereo unspecified)
0.3 µg/mL (≈ 0.771 µM) | CCOC(=O)Cc1csc(NC(=O)Nc2ccc(OC(F)(F)F)cc2)n1
> 51.2 µg/mL | Cc1cc(C)n2nc(SCCC(=O)NCc3ccccc3)nc2n1
21 µg/mL (≈ 54.2 µM) | O=C(COC(=O)c1ccc([N+](=O)[O-])o1)Nc1ccc(Br)cc1F
37.4 µg/mL (≈ 134 µM) | CC(C)C(=O)Nc1nc2cc3c(cc2s1)OCCO3
35.6 µg/mL (≈ 119 µM) | Cc1cc(C)c(NC(=O)COC(=O)c2ccncc2)c(C)c1
22.5 µg/mL (≈ 71.1 µM) | CC(OC(=O)c1cccn1C)C(=O)Nc1ccc2c(c1)OCO2 (stereo unspecified)
10.9 µg/mL (≈ 32.5 µM) | CCOc1ccc(S(=O)(=O)NCc2ccc3c(c2)OCO3)cc1
> 46.7 µg/mL | Cn1c(=O)n(C)c2cc(NC(=O)COc3ccccc3)ccc21
> 52.7 µg/mL | CCOC(=O)N1CCN(C(=S)NC(=O)c2cccc(OC)c2)CC1
9.2 µg/mL (≈ 29.5 µM) | CC(=O)c1cccc(NC(=O)NCc2ccc3c(c2)OCO3)c1
> 32.3 µg/mL | Cc1cc(NCc2cccnc2)nc(N)n1
32.4 µg/mL (≈ 127 µM) | CC(=O)c1ccc(NC(=O)Nc2cccnc2)cc1
6.9 µg/mL (≈ 13.5 µM) | CCOc1ccccc1C(=O)N[C@H](C(=O)OCc1csc(CC(=O)Nc2ccc(C)cc2)n1)C(C)C
1.7 µg/mL (≈ 4.72 µM) | CCOc1ccccc1C(=O)Nc1ccc(NC(=O)c2ccccc2)cc1
> 46.7 µg/mL | CC(=O)C1=C(O)CC(C)(C)CC1=NCc1nc2ccccc2[nH]1

solubility kinetic | SMILES
25.1 µg/mL (≈ 74.2 µM) | COc1ccc(CC(=O)N2CCN(c3cccc(C)c3C)CC2)cc1
45.9 µg/mL (≈ 138 µM) | COc1cccc(NC(=O)N2CCCC2C(=O)NC2CCCC2)c1 (stereo unspecified)
21.4 µg/mL (≈ 60.6 µM) | O=C(COC(=O)c1ccc(Cl)nc1)NCCc1ccc(Cl)cc1
22.5 µg/mL (≈ 61.4 µM) | O=C(COC(=O)c1ccccc1Br)NCCC1=CCCCC1
> 41.3 µg/mL | CC(=O)c1ccccc1OC(=O)c1ccc([N+](=O)[O-])o1
7 µg/mL (≈ 18.6 µM) | COc1ccccc1/C=C(\NC(=O)c1ccccc1)C(=O)NCc1ccco1
> 59.6 µg/mL | COc1ccc(C(=O)OCC(=O)NCCN2C(=O)CSC2=O)cc1[N+](=O)[O-]
> 46.6 µg/mL | Cc1cccc(CNS(=O)(=O)c2csc(C(N)=O)c2)c1
40.1 µg/mL (≈ 143 µM) | Cc1c(Cl)cccc1NC(=S)NCc1ccco1
35.4 µg/mL (≈ 137 µM) | O=C(OCc1nc2ccccc2s1)c1ccco1
6.4 µg/mL (≈ 23.1 µM) | Cc1ccc(C)c(NC(=O)c2ccc3nccnc3c2)c1
> 50.2 µg/mL | CCOc1ccc(C(=O)NCC(=O)OCC(=O)N2CCCC2)cc1
4.8 µg/mL (≈ 11.7 µM) | COc1ccc(CC(=O)OCc2csc(CC(=O)Nc3ccc(C)cc3)n2)cc1
3.8 µg/mL (≈ 11.1 µM) | COc1cc2[nH]c(=S)nc(NCc3ccc(C)cc3)c2cc1OC
3.3 µg/mL (≈ 15.3 µM) | Nc1nc(-c2cc3ccccc3o2)cs1
> 37.8 µg/mL | Cc1cc(C(=O)CCl)c(C)n1Cc1ccco1
3.6 µg/mL (≈ 10.3 µM) | Cc1cccc(NC(=O)COC(=O)c2ccc3nc(C)c(C)nc3c2)c1
> 36.3 µg/mL | Cc1c(NCc2ccncc2)cccc1C(=O)O
35.5 µg/mL (≈ 131 µM) | CSc1ccccc1NC(=O)CCc1ccccc1

Continued, molecule first:

SMILES | solubility kinetic
CC(CN1CCCCC1)OC(=O)c1ccc2c(c1)OCCO2.Cl (stereo unspecified) | > 51.3 µg/mL
O=c1cc(-c2ccccc2)nc(Cc2c(Cl)cccc2Cl)[nH]1 | < 0.4 µg/mL
O=[N+]([O-])c1ccccc1/C=C/CN1CCCC(CO)C1 (stereo unspecified) | 33.2 µg/mL (≈ 120 µM)
O=[N+]([O-])C1C(c2ccccc2)=NOC1c1ccccc1O (stereo unspecified) | > 42.6 µg/mL
Cc1cc(Cl)c(S(=O)(=O)N2CCCC2)cc1OCC(N)=O | > 49.9 µg/mL
CN1CCN(CCCCOc2cccc3ccccc23)CC1.Cl | > 50.2 µg/mL
CCCNc1nc(Cl)nc(NC(C)(C)C)n1 | 17.1 µg/mL (≈ 70.2 µM)
CN(Cc1ccccc1)C(=O)Nc1ccc(Cl)cc1 | 38.5 µg/mL (≈ 140 µM)
O=C(OCC(=O)N1CCN(c2ccccc2)CC1)c1ccc[n+]([O-])c1 | 44.5 µg/mL (≈ 130 µM)
CC1(C)Cc2nc3oc4c(SCC(N)=O)ncnc4c3cc2CO1 | 17.8 µg/mL (≈ 51.7 µM)
Cn1c(=O)[nH]c2ncn(C)c2c1=O | > 27 µg/mL
O=C(Nc1ccccc1C(=O)Nc1ccccc1)c1ccccc1F | < 0.4 µg/mL
COc1ccc2c(c1)C1=C(CC2)C(c2ccc(C)cc2)NC(=S)N1 (stereo unspecified) | 10.5 µg/mL (≈ 31.2 µM)
CC(C)C[C@H](NC(=O)NCCC1=CCCCC1)C(=O)O | 40.9 µg/mL (≈ 145 µM)
CCN(CC)CCOC(=O)C(c1ccccc1)C1CCCCC1.Cl (stereo unspecified) | > 53.1 µg/mL
Cc1cc(C(=O)O)c(C)n1C1CC1 | > 26.9 µg/mL
Cc1cc(C)c(C)c(S(=O)(=O)NCCCN2CCOCC2)c1C | > 51.1 µg/mL
O=C(NC(=S)N1CCCC(C(F)(F)F)C1)c1ccc(F)cc1 (stereo unspecified) | 37.9 µg/mL (≈ 113 µM)
O=[N+]([O-])c1ccc2c(c1N1CCCCC1)=NC1(CCCCC1)[N+]=2[O-] | 47.1 µg/mL (≈ 143 µM)
S=C1N[C@H]2CCCC[C@@H]2N1 | 20.8 µg/mL (≈ 133 µM)
OC(CNCCNc1ncccc1C(F)(F)F)COc1ccc(F)cc1 (stereo unspecified) | 50.9 µg/mL (≈ 136 µM)

SMILES | solubility kinetic
O=C(O)c1cnn2c(-c3ccccc3)ccnc12 | > 35.9 µg/mL
COC(=O)c1sccc1NC(=S)N1C(C)CCCC1C (stereo unspecified) | 20.3 µg/mL (≈ 65 µM)
CN(C(=O)c1ccc2nccnc2c1)C1CCCCC1 | > 40.4 µg/mL
COc1ccc(C2(C#N)CCC(=O)N2c2ccccc2)cc1 (stereo unspecified) | 40.9 µg/mL (≈ 140 µM)
O=C1NC2(CCCCC2)C(=O)N1CCN1C(=O)c2ccccc2C1=O | 40.1 µg/mL (≈ 117 µM)
Cc1nccn1C[C@@H]1CCc2c(c3ccccc3n2C)C1=O | 32.5 µg/mL (≈ 111 µM)
Cl.c1ccc(C2CN3CCSC3=N2)cc1 (stereo unspecified) | > 36.1 µg/mL
C=CCn1c(P(C)(=O)[O-])nc2ccccc21.[K+] | > 41.1 µg/mL
N#Cc1ccsc1NC(=O)CN1C(=O)NC2(CCCCC2)C1=O | 47.3 µg/mL (≈ 142 µM)
CCOC(=O)c1c(NC(C)=O)sc(C(=O)NC2CCCC2)c1C | 1 µg/mL (≈ 2.95 µM)
O=C(/C=C/c1ccco1)NCCCN1CCOCC1 | > 39.6 µg/mL
Cc1c(Cl)cccc1-n1cnc(=O)c2ccccc21 | > 40.6 µg/mL
c1ccc(Nc2ncnc3sccc23)cc1 | > 34.1 µg/mL
Clc1ccc2oc(SCc3cccnc3)nc2c1 | 3.5 µg/mL (≈ 12.6 µM)
CN1CCN(C(=O)CCc2nc(-c3ccc(Cl)cc3)no2)CC1 | > 50.2 µg/mL
c1ccc(CCNCCCOc2cccc3ccccc23)cc1 | 37.1 µg/mL (≈ 121 µM)
Clc1ccc(Cc2ccccn2)cc1 | 6.3 µg/mL (≈ 30.9 µM)
O=C(c1cc([N+](=O)[O-])ccc1N1CCCC1)N1CCCCC1 | 25.9 µg/mL (≈ 85.4 µM)
Brc1ccc(Nc2nc(-c3cccnc3)cs2)cc1 | 0.3 µg/mL (≈ 0.903 µM)
CCCn1c(SCC(=O)NC2CCC(C)CC2)n[nH]c1=O (stereo unspecified) | > 46.9 µg/mL
CCC(C)c1ccc(NC(=S)N2CCCC2)cc1 (stereo unspecified) | > 39.4 µg/mL

SMILES | solubility kinetic
COc1ccc(NC(=S)N2CCCCC2c2cccnc2)cc1 (stereo unspecified) | 49 µg/mL (≈ 150 µM)
Cc1ccc(S(=O)(=O)[O-])cc1.Cn1cc[n+](C)c1COc1ccc(C=O)cc1 | > 60.4 µg/mL
O=C(NC1CCCCC1)c1ccc2c(c1)OCCO2 | 34.8 µg/mL (≈ 133 µM)
Cc1ccc(C)c(S(=O)(=O)c2c[nH]c(=S)[nH]c2=O)c1 | 36.6 µg/mL (≈ 123 µM)
O=c1[nH]c2ccccc2nc1-c1ccccc1 | 3.9 µg/mL (≈ 17.5 µM)
CCOC(=O)c1cnc(SCC#N)nc1N | > 35.7 µg/mL
CN1CCN(CCCN2c3ccccc3Sc3ccc(Cl)cc32)CC1.O=S(=O)(O)CCS(=O)(=O)O | 73.3 µg/mL
CCOc1ccc(S(=O)(=O)N2CCNC(=O)C2)cc1 | > 42.6 µg/mL
CC(=O)CSc1ccc(-c2nc3ccccc3[nH]2)cn1 | > 42.5 µg/mL
CNCC(=O)Nc1ccc(OC(F)(F)F)cc1.Cl | 41.4 µg/mL
CCCOCCc1nnc(N)s1 | > 28.1 µg/mL
O=C(CC1C(=O)NCCN1C(=O)Nc1ccccc1)Nc1ccc(F)cc1 (stereo unspecified) | 52.2 µg/mL (≈ 141 µM)
O=C1NC2(CCCCCC2)C(=O)N1Cc1cccc(Cl)c1 | 15.8 µg/mL (≈ 51.5 µM)
CCCN1CN=C(Nc2nc3ccccc3o2)NC1 | 18.9 µg/mL (≈ 72.9 µM)
O=C1NCCN/C1=C\C(=O)c1ccc(Br)cc1 | 17.8 µg/mL (≈ 60.3 µM)
CC(=O)c1ccc(OCC(=O)NC(=O)NC2CCCCC2)cc1 | 9.3 µg/mL (≈ 29.2 µM)
Cc1ccc(S(=O)(=O)NCCC(=O)NC2CC2)cc1 | > 42.4 µg/mL
Cc1cccc(N=C2C(=O)Nc3c(Cl)cccc32)c1 | 32.4 µg/mL (≈ 120 µM)
C=CCNc1nc2ccccc2nc1NS(=O)(=O)c1ccc(OC)cc1 | 45.9 µg/mL (≈ 124 µM)
CCc1ccc(Oc2ncnc(N)c2[N+](=O)[O-])cc1 | 5 µg/mL (≈ 19.2 µM)
